Laboratory results: ChEMBL document CHEMBL1268894, “Synthesis and biological evaluation of novel hygromycin A antibacterial agents” (Bioorg Med Chem Lett, 2010)
≈ marks a conversion by molar mass, not a printed value.

Tests used:
Streptococcus pneumoniae [1] = test: Antimicrobial activity against Streptococcus pneumoniae 1095; format: functional
Streptococcus pyogenes [2] = test: Antimicrobial activity against Streptococcus pyogenes 2035; format: functional
Staphylococcus aureus [3] = test: Antimicrobial activity against Staphylococcus aureus 1095; format: functional
Streptococcus pyogenes [4] = test: Antimicrobial activity against Streptococcus pyogenes 1079; format: functional
Staphylococcus aureus [5] = test: Antimicrobial activity against Staphylococcus aureus 1146; format: functional
Streptococcus pneumoniae [6] = test: Antimicrobial activity against Streptococcus pneumoniae 1046; format: functional
[7] = Oral bioavailability in rat; format: ADME, organism-based; settings: in vivo
[8] = Permeability across basolateral to apical side in human Caco-2 cells; format: ADME, cell-based; settings: read-out: permeability
[9] = Permeability across apical to basolateral side in human Caco-2 cells; format: ADME, cell-based; settings: read-out: permeability

SMILES | MIC (Streptococcus pneumoniae [1]) [µg/mL] | MIC (Streptococcus pyogenes [2]) [µg/mL] | MIC (Staphylococcus aureus [3]) [µg/mL] | MIC (Streptococcus pyogenes [4]) [µg/mL] | MIC (Staphylococcus aureus [5]) [µg/mL] | MIC (Streptococcus pneumoniae [6]) [µg/mL] | bioavailability [7] [%] | Papp B→A [8] [×10⁻⁶ cm/s] | Papp A→B [9] [×10⁻⁶ cm/s]
C/C(=C\c1cc(F)c(OCCCF)cc1F)C(=O)N[C@H]1C[C@@H]2OCO[C@@H]2[C@H](O)[C@H]1O | 8 (≈ 18.5 µM) | 4 (≈ 9.27 µM) | 16 (≈ 37.1 µM) | 8 (≈ 18.5 µM) | 8 (≈ 18.5 µM) | – | – | – | –
CCCO[C@@H]1[C@H](NC(=O)/C(C)=C/c2cc(F)c(OCCCF)cc2F)[C@H](O)[C@@H](O)[C@H]2OCO[C@H]21 | 2 (≈ 4.09 µM) | 4 (≈ 8.17 µM) | 4 (≈ 8.17 µM) | 1 (≈ 2.04 µM) | 8 (≈ 16.3 µM) | 1 (≈ 2.04 µM) | – | – | –
CCCO[C@@H]1[C@@H](O)[C@H]2OCO[C@H]2[C@H](O)[C@@H]1NC(=O)/C(C)=C/c1cc(F)c(OCCCF)cc1F | 64 (≈ 131 µM) | 64 (≈ 131 µM) | > 64 | 32 (≈ 65.4 µM) | > 64 | 64 (≈ 131 µM) | – | – | –
COCCCO[C@@H]1[C@H](NC(=O)/C(C)=C/c2cc(F)c(OCCCF)cc2F)[C@H](O)[C@@H](O)[C@H]2OCO[C@H]21 | 4 (≈ 7.7 µM) | 2 (≈ 3.85 µM) | 16 (≈ 30.8 µM) | 2 (≈ 3.85 µM) | 16 (≈ 30.8 µM) | 4 (≈ 7.7 µM) | 90 | – | –
C/C(=C\c1cc(F)c(OCCCF)cc1F)C(=O)N[C@H]1[C@@H](O)[C@@H]2OCO[C@@H]2[C@H](O)[C@H]1OCC1CC1 | > 64 | > 64 | > 64 | 32 (≈ 63.8 µM) | > 64 | 64 (≈ 128 µM) | – | – | –
CCO[C@@H]1[C@H](NC(=O)/C(C)=C/c2cc(F)c(OCCCF)cc2F)[C@H](O)[C@@H](O)[C@H]2OCO[C@H]21 | 4 (≈ 8.41 µM) | 4 (≈ 8.41 µM) | 8 (≈ 16.8 µM) | 1 (≈ 2.1 µM) | 8 (≈ 16.8 µM) | 1 (≈ 2.1 µM) | – | – | –
C/C(=C\c1cc(F)c(OCCCF)cc1F)C(=O)N[C@@H]1[C@H](O)[C@@H](O)[C@H]2OCO[C@H]2[C@@H]1OCC#N | 1 (≈ 2.06 µM) | 0.5 (≈ 1.03 µM) | 2 (≈ 4.11 µM) | 0.25 (≈ 0.514 µM) | 1 (≈ 2.06 µM) | 0.5 (≈ 1.03 µM) | – | – | –
CO[C@@H]1[C@@H](O)[C@@H](NC(=O)/C(C)=C/c2cc(F)c(OCCCF)cc2F)[C@@H](O)[C@@H]2OCO[C@H]12 | 25 (≈ 54.2 µM) | 100 (≈ 217 µM) | > 100 | 50 (≈ 108 µM) | 100 (≈ 217 µM) | 25 (≈ 54.2 µM) | – | – | –
CO[C@@H]1[C@H](NC(=O)/C(C)=C/c2cc(F)c(OCCCF)cc2F)[C@H](O)[C@@H](O)[C@H]2OCO[C@H]21 | 1.56 (≈ 3.38 µM) | 1.56 (≈ 3.38 µM) | 6.25 (≈ 13.5 µM) | 1.56 (≈ 3.38 µM) | 3.13 (≈ 6.78 µM) | 0.78 (≈ 1.69 µM) | – | – | –
C/C(=C\c1cc(F)c(OCCCF)cc1F)C(=O)N[C@H]1[C@@H](O)[C@@H]2OCO[C@@H]2[C@H](O)[C@H]1OCc1ccccc1 | 32 (≈ 59.5 µM) | 64 (≈ 119 µM) | > 64 | 32 (≈ 59.5 µM) | 64 (≈ 119 µM) | 32 (≈ 59.5 µM) | – | 14 | 10
C/C(=C\c1cc(F)c(OCCCF)cc1F)C(=O)N[C@@H]1[C@H](O)[C@@H](O)[C@H]2OCO[C@H]2[C@@H]1OCC1CC1 | 1 (≈ 1.99 µM) | 1 (≈ 1.99 µM) | 4 (≈ 7.98 µM) | 0.5 (≈ 0.997 µM) | 4 (≈ 7.98 µM) | 0.5 (≈ 0.997 µM) | – | – | –
C/C(=C\c1cc(F)c(OCCCF)cc1F)C(=O)N[C@H]1[C@@H](O)[C@@H]2OCO[C@@H]2[C@H](O)[C@H]1OCCCF | 8 (≈ 15.8 µM) | 8 (≈ 15.8 µM) | 16 (≈ 31.5 µM) | 2 (≈ 3.94 µM) | 8 (≈ 15.8 µM) | 8 (≈ 15.8 µM) | – | – | –
C=CCOc1ccc(/C=C(\C)C(=O)N[C@@H]2[C@H](O)[C@@H](O)[C@H]3OCO[C@H]3[C@@H]2O)cc1O | 1.56 (≈ 3.83 µM) | 1.56 (≈ 3.83 µM) | 50 (≈ 123 µM) | 0.8 (≈ 1.96 µM) | 50 (≈ 123 µM) | 1.56 (≈ 3.83 µM) | – | – | –
C/C(=C\c1cc(F)c(OCCCF)cc1F)C(=O)N[C@H]1[C@@H](O)[C@@H]2OCO[C@@H]2C[C@H]1O | 8 (≈ 18.5 µM) | 16 (≈ 37.1 µM) | 64 (≈ 148 µM) | 8 (≈ 18.5 µM) | 32 (≈ 74.2 µM) | 4 (≈ 9.27 µM) | – | – | –
C/C(=C\c1cc(F)c(OCCCF)cc1F)C(=O)N[C@@H]1[C@H](O)[C@@H](O)[C@H]2OCO[C@H]2[C@@H]1OCc1ccccc1 | 8 (≈ 14.9 µM) | 16 (≈ 29.8 µM) | 16 (≈ 29.8 µM) | 2 (≈ 3.72 µM) | 16 (≈ 29.8 µM) | 4 (≈ 7.44 µM) | – | – | –
C/C(=C\c1cc(F)c(OCCCF)cc1F)C(=O)N[C@@H]1[C@H](O)[C@@H](O)[C@H]2OCO[C@H]2[C@@H]1OCCCF | 0.25 (≈ 0.493 µM) | 0.5 (≈ 0.985 µM) | 2 (≈ 3.94 µM) | 0.125 (≈ 0.246 µM) | 1 (≈ 1.97 µM) | 0.25 (≈ 0.493 µM) | – | – | –
C/C(=C\c1cc(F)c(OCCCF)cc1F)C(=O)N[C@@H]1[C@H](O)[C@@H](O)[C@H]2OCO[C@H]2[C@@H]1O | 0.4 (≈ 0.894 µM) | 2 (≈ 4.47 µM) | 4 (≈ 8.94 µM) | < 0.2 | 4 (≈ 8.94 µM) | 0.5 (≈ 1.12 µM) | 20 | 5.9 | 0.9
CC(=O)[C@H]1O[C@@H](Oc2ccc(/C=C(\C)C(=O)N[C@@H]3[C@H](O)[C@@H](O)[C@H]4OCO[C@H]4[C@@H]3O)cc2O)[C@@H](O)[C@@H]1O [HYGROMYCIN A] | 12.5 (≈ 24.4 µM) | 6.25 (≈ 12.2 µM) | 50 (≈ 97.8 µM) | 6.25 (≈ 12.2 µM) | 25 (≈ 48.9 µM) | 12.5 (≈ 24.4 µM) | – | – | –
CCO[C@@H]1[C@@H](O)[C@H]2OCO[C@H]2[C@H](O)[C@@H]1NC(=O)/C(C)=C/c1cc(F)c(OCCCF)cc1F | 8 (≈ 16.8 µM) | 1 (≈ 2.1 µM) | 8 (≈ 16.8 µM) | 2 (≈ 4.21 µM) | 8 (≈ 16.8 µM) | 2 (≈ 4.21 µM) | – | – | –
C/C(=C\c1cc(F)c(OCCCF)cc1F)C(=O)N[C@@H]1[C@H](O)[C@@H](O)[C@H]2OCO[C@H]2[C@@H]1OCc1ccccc1C#N | < 0.0625 | 0.25 (≈ 0.444 µM) | 1 (≈ 1.78 µM) | < 0.0625 | 1 (≈ 1.78 µM) | < 0.0625 | – | 22 | 2.5
C/C(=C\c1cc(F)c(OCCCF)cc1F)C(=O)N[C@@H]1[C@H](O)[C@@H](O)[C@H]2OCO[C@H]2[C@@H]1OCC1CCOC1 (stereo partly drawn) | 1 (≈ 1.88 µM) | 1 (≈ 1.88 µM) | 4 (≈ 7.53 µM) | 0.25 (≈ 0.47 µM) | 2 (≈ 3.76 µM) | 0.5 (≈ 0.941 µM) | – | – | –
